How the values were obtained:
yeast-like fungi = experiment: MIC / MFC for yeast-like fungi, all strains; type: cell-based, Candida, Cryptococcus, Saccharomyces, Torulopsis; settings: versus susceptible strains; read-out: Mean MIC values
Protocol: (§1) The following strains were used (the number of strains is in brackets): Candida (13); Criptococcus (2); Saccharormyces (1); Torulopsis (1).
(§2) Yeast Nitrogen Base supplemented with 0.15% asparagine and 1.0% glucose (as carbon source) was the medium utilized in the assays.
(§3) This medium was buffered with 0.165 M 2-(N-morpholino) propane sulfonic acid (MOPS), a non-chelating buffer. […]
(§4) The inoculum was prepared from an overnight broth culture (a 48-hour culture only for Cryptococcus) in Sabouraud broth and appropriately diluted to yield a final suspension containing approximately 5.0×10^6 Colony Forming Units per ml (CFU/ml), when compared to the Mc Farland's standard control (BRAY W. E., Clinical Laboratory Methods, 5th Ed. C. V. MOSBY, St. Louis, Mo, 1957).
(§5) After further diluting (1:50), a […] volume of such fungal suspensions and an equal volume of the substance solutions were distributed into each well of a microtiter plate (96 wells, round bottom). Such a procedure eventually allowed for an "in vitro" antimycotic activity assay utilizing final fungal inocula of approximately 5.0×10^4 CFU/ml.
(§6) The minimal fungicidal concentration was evaluated by spot-transferring onto Petri dishes, containing Sabouraud agar, 0.01-ml volumes of all the samples showing no visible fungal growth.

Fusarium sp. (ISS 1) = experiment: MIC for filamentous fungi; type: cell-based; settings: read-out: Minimal Inhibitory Concentration (MIC)
Source text: (§7) The following strains were used (the number of strains is in brackets): Aspergillus (5); Fusarium (1); Mucor (1); Penicillium (1).
(§8) The tested substances were: ST 712, ST 722, ST 982, ST 983, ST 1000, ST 1001, ST 1032, ST 1033, ST 1034, ST 1036, ST 1037, ST 1038, ST 1050, ST 1051, ST 1052, ST 1053. The assay medium was the same as the one used in the previous study. The conidia from 72-hour cultures in Sabouraud agar, collected by washing with Sabouraud medium and Tween 80 (one drop of Tween per 10 ml of medium), were utilized as inoculum (5.0×10^4 CFU/ml).
(§9) The assay was performed using the same procedure as described for yeast-like fungi.
(§10) Also the evaluation of MIC and MFC was as reported previously.

Penicillium sp. (1302) = experiment: MIC for filamentous fungi; type: cell-based; settings: read-out: Minimal Inhibitory Concentration (MIC)
Source text: as §7, §8, §9, §10

[1] = test system: Aspergillus fumigatus (ATCC 28212); experiment: MIC for filamentous fungi; type: cell-based; settings: ATCC28212, read-out: Minimal Inhibitory Concentration (MIC)
Source text: as §7, §8, §9, §10

Mucor mucedo (ATCC 7941) = experiment: MIC for filamentous fungi; type: cell-based; settings: ATCC7941, read-out: Minimal Inhibitory Concentration (MIC)
Source text: as §7, §8, §9, §10

[2] = test system: Aspergillus niger (ATCC 16404); experiment: MIC for filamentous fungi; type: cell-based; settings: ATCC16404, read-out: Minimal Inhibitory Concentration (MIC)
Source text: as §7, §8, §9, §10

dermatophytic fungi = experiment: MIC / MFC for dermatophytic fungi, all strains; type: cell-based, Trichophyton, Microsporum, Epidermophyton; settings: versus susceptible strains
Protocol: (§11) The following strains were used: Trichophyton menthagrophytes ATCC 9533, Trichophyton rubrum IHEM 4274, Microsporum canis IHEM 3522, Epydermophyton floccosum IHEM 3495. The tested substances were: ST 722, ST 1033, ST 1037, ST 1050, ST 1051, ST 1052,. ST 1053.
(§12) The assay was performed following the same procedure described for the yeasts, by using 7-day fungi cultures grown at 30° C. in Potato Dextrose agar, and harvested with Sabouraud broth and Tween 80 (0.5%).
(§13) After washing with Yeast Nitrogen Base, supplemented with asparagine and glucose (as carbon source), the fungal suspension was fragmented using a tissue grinder until the largest clumps or aggregates were undetectable within the grinder. This fungal suspension was then appropriately diluted in YNB to yield a concentration of 2.0×10^5 infective particles/ml (small mycelium fragments, micro-and macroaleuriospores).
(§14) Volumes of 100 μl both of the fungal suspensions and substance solutions, two-fold serially diluted in assay medium, were distributed into each well of a microtiter plate (96 wells, round bottom), which was incubated at 35° C. for 96 hours.

Candida albicans (562) = experiment: MIC for yeast and yeast-like strains; type: cell-based; settings: 48 hours, 35° C., read-out: Minimal Inhibitory Concentration (MIC)
Protocol: as §1, §2, §3, §4, §5

Candida albicans (Ca 2) = experiment: MIC for yeast and yeast-like strains; type: cell-based; settings: 48 hours, 35° C., read-out: Minimal Inhibitory Concentration (MIC)
Protocol: as §1, §2, §3, §4, §5

[3] = test system: Candida tropicalis (5705); experiment: MIC for yeast and yeast-like strains; type: cell-based; settings: 48 hours, 35° C., read-out: Minimal Inhibitory Concentration (MIC)
Protocol: as §1, §2, §3, §4, §5

Candida krusei (ISS 1) = experiment: MIC for yeast and yeast-like strains; type: cell-based; settings: Pichia kudriavzevii; 48 hours, 35° C.; read-out: Minimal Inhibitory Concentration (MIC)
Protocol: as §1, §2, §3, §4, §5

[4] = test system: Saccharomyces cerevisiae (ATCC 7752); experiment: MIC for yeast and yeast-like strains; type: cell-based; settings: ATCC7752, 48 hours, 35° C., read-out: Minimal Inhibitory Concentration (MIC)
Protocol: as §1, §2, §3, §4, §5

[5] = test system: Trichophyton menthagrophites (ATCC 9533); experiment: MIC for dermatophytic fungi; type: cell-based; settings: ATCC9533, 35° C., 96 hours, read-out: Minimal Inhibitory Concentration (MIC)
Protocol: as §11, §12, §13, §14

[6] = test system: Trichophyton rubrum (IHEM 4274); experiment: MIC for dermatophytic fungi; type: cell-based; settings: 35° C., 96 hours, read-out: Minimal Inhibitory Concentration (MIC)
Protocol: as §11, §12, §13, §14

[7] = test system: Epidermophyton floccosum (IHEM 3495); experiment: MIC for dermatophytic fungi; type: cell-based; settings: 35° C., 96 hours, read-out: Minimal Inhibitory Concentration (MIC)
Protocol: as §11, §12, §13, §14

[8] = test system: Microsporum canis (IHEM 3522); experiment: MIC for dermatophytic fungi; type: cell-based; settings: 35° C., 96 hours, read-out: Minimal Inhibitory Concentration (MIC)
Protocol: as §11, §12, §13, §14

filamentous fungi = experiment: MIC / MFC for filamentous fungi, all strains; type: cell-based, Aspergillus, Fusarium, Mucor, Penicillium; settings: versus susceptible strains; read-out: Mean MIC values
Source text: as §7, §8, §9, §10

[9] = test system: Candida pseudotropicalis (EC 1); experiment: MIC for yeast and yeast-like strains; type: cell-based; settings: Kluyveromyces marxianus; 48 hours, 35° C.; read-out: Minimal Inhibitory Concentration (MIC)
Protocol: as §1, §2
(§15) This medium was buffered with 0.165 M 2-(N-morpholino) propane sulfonic acid (MOPS), a non-chelating buffer.
(§16) Antimicrob. Agents Cheroother. Aug. 34.8:1542-1545).
as §4, §5

[10] = test system: Candida albicans (ATCC 2091); experiment: MIC for yeast and yeast-like strains; type: cell-based; settings: ATCC2091, 48 hours, 35° C., read-out: Minimal Inhibitory Concentration (MIC)
Protocol: as §1, §2, §15, §16, §4, §5

[11] = test system: Candida guilliermondii (ISS 1); experiment: MIC for yeast and yeast-like strains; type: cell-based; settings: Meyerozyma guilliermondii; 48 hours, 35° C.; read-out: Minimal Inhibitory Concentration (MIC)
Protocol: as §1, §2, §15, §16, §4, §5

Candida glabrata (ISS 1) = experiment: MIC for yeast and yeast-like strains; type: cell-based; settings: Nakaseomyces glabratus; 48 hours, 35° C.; read-out: Minimal Inhibitory Concentration (MIC)
Protocol: as §1, §2, §15, §16, §4, §5

[12] = test system: Candida parapsilosis (ISS 1); experiment: MIC for yeast and yeast-like strains; type: cell-based; settings: Lodderomyces parapsilosis; 48 hours, 35° C.; read-out: Minimal Inhibitory Concentration (MIC)
Protocol: as §1, §2, §15, §16, §4, §5

Candida albicans (ISS 1) = experiment: MIC for yeast and yeast-like strains; type: cell-based; settings: 48 hours, 35° C., read-out: Minimal Inhibitory Concentration (MIC)
Protocol: as §1, §2, §15, §16, §4, §5

[13] = test system: Cryptococcus neoformans (ISS 1); experiment: MIC for yeast and yeast-like strains; type: cell-based; settings: 48 hours, 35° C., read-out: Minimal Inhibitory Concentration (MIC)
Protocol: as §1, §2, §15, §16, §4, §5

[14] = test system: Candida tropicalis (ISS 1); experiment: MIC for yeast and yeast-like strains; type: cell-based; settings: 48 hours, 35° C., read-out: Minimal Inhibitory Concentration (MIC)
Protocol: as §1, §2, §15, §16, §4, §5

[15] = test system: Aspergillus fumigatus (C/1); experiment: MIC for filamentous fungi; type: cell-based; settings: read-out: Minimal Inhibitory Concentration (MIC)
Source text: as §7, §8, §9, §10

[16] = test system: Aspergillus fumigatus (1/A); experiment: MIC for filamentous fungi; type: cell-based; settings: read-out: Minimal Inhibitory Concentration (MIC)
Source text: as §7, §8, §9, §10

[17] = test system: Aspergillus fumigatus (2/A); experiment: MIC for filamentous fungi; type: cell-based; settings: read-out: Minimal Inhibitory Concentration (MIC)
Source text: as §7, §8, §9, §10

[18] = test system: Torulopsis candida (D.S.); experiment: MIC for yeast and yeast-like strains; type: cell-based; settings: Suzukiozyma candida; 48 hours, 35° C.; read-out: Minimal Inhibitory Concentration (MIC)
Protocol: as §1, §2, §3, §4, §5

Candida albicans (A 54) = experiment: MIC for yeast and yeast-like strains; type: cell-based; settings: 48 hours, 35° C., read-out: Minimal Inhibitory Concentration (MIC)
Protocol: as §1, §2, §3, §4, §5

[19] = test system: Cryptococcus neoformans (4711); experiment: MIC for yeast and yeast-like strains; type: cell-based; settings: 48 hours, 35° C., read-out: Minimal Inhibitory Concentration (MIC)
Protocol: as §1, §2, §3, §4, §5

Candida albicans (PG) = experiment: MIC and MFC for yeast and yeast-like strains; type: cell-based; settings: 48 hours, 35° C., read-out: Minimal Inhibitory Concentration (MIC)
Protocol: as §1, §2, §15, §16, §4, §5, §6

SMILES	MIC (yeast-like fungi)	MIC (Fusarium sp. (ISS 1))	MIC (Penicillium sp. (1302))	MIC [1]	MIC (Mucor mucedo (ATCC 7941))	MIC [2]	MIC (dermatophytic fungi)	MIC (Candida albicans (562))	MIC (Candida albicans (Ca 2))	MIC [3]	MIC (Candida krusei (ISS 1))	MIC [4]	MIC [5]	MIC [6]	MIC [7]	MIC [8]	MIC (filamentous fungi)	MIC [18]	MIC (Candida albicans (A 54))	MIC [19]	also measured
CCCCCCCCCCCCCOC(=O)C[C@H](C[N+](C)(C)C)OC(=O)CCCCC [ST 1052]	2.8 µg/mL	6.25 µg/mL	3.12 µg/mL	3.12 µg/mL	6.25 µg/mL	3.12 µg/mL	12.5 µg/mL	3.12 µg/mL	1.56 µg/mL	3.12 µg/mL	3.12 µg/mL	3.12 µg/mL	12.5 µg/mL	6.25 µg/mL	25 µg/mL	6.25 µg/mL	4.37 µg/mL	–	–	–	–
CCCCCCCCCCCOC(=O)C[C@H](C[N+](C)(C)C)OC(=O)CCCCCC [ST 1036]	2.84 µg/mL	3.12 µg/mL	3.12 µg/mL	3.12 µg/mL	6.25 µg/mL	3.12 µg/mL	–	1.56 µg/mL	1.56 µg/mL	3.12 µg/mL	1.56 µg/mL	3.12 µg/mL	–	–	–	–	4.29 µg/mL	3.12 µg/mL	1.56 µg/mL	1.56 µg/mL	MIC [9]: 6.25 µg/mL; MIC [10]: 1.56 µg/mL; MIC [11]: 6.25 µg/mL; MIC (Candida glabrata (ISS 1)): 3.12 µg/mL; MIC [12]: 6.25 µg/mL; MIC (Candida albicans (ISS 1)): 1.56 µg/mL; MIC [13]: 3.12 µg/mL; MIC [14]: 3.12 µg/mL; MIC [15]: 3.12 µg/mL; MIC [16]: 6.25 µg/mL; MIC [17]: 6.25 µg/mL; MIC (Candida albicans (PG)): 3.12 µg/mL
CCCCCCCCCCCCCCCC(=O)O[C@H](CC(=O)OCCCCCCCCCCC)C[N+](C)(C)C [ST 983]	> 100 µg/mL	> 100 µg/mL	> 100 µg/mL	> 100 µg/mL	> 100 µg/mL	> 100 µg/mL	–	–	> 100 µg/mL	> 100 µg/mL	–	–	–	–	–	–	> 100 µg/mL	> 100 µg/mL	> 100 µg/mL	> 100 µg/mL	–
CCCCCCCCCCCOC(=O)C[C@H](C[N+](C)(C)C)OC(=O)CCCCCCC [ST 1000]	4.21 µg/mL	3.12 µg/mL	3.12 µg/mL	3.12 µg/mL	6.25 µg/mL	3.12 µg/mL	–	–	1.56 µg/mL	–	1.56 µg/mL	–	–	–	–	–	3.76 µg/mL	6.25 µg/mL	6.25 µg/mL	1.56 µg/mL	MIC [11]: 6.25 µg/mL; MIC (Candida glabrata (ISS 1)): 6.25 µg/mL; MIC [12]: 6.25 µg/mL; MIC (Candida albicans (ISS 1)): 3.12 µg/mL; MIC [14]: 3.12 µg/mL
CCCCCCCCCCCCCOC(=O)C[C@H](C[N+](C)(C)C)OC(=O)CCCCCCC [ST 1053]	5.62 µg/mL	6.25 µg/mL	3.12 µg/mL	6.25 µg/mL	12.5 µg/mL	3.12 µg/mL	14.1 µg/mL	12.5 µg/mL	3.12 µg/mL	6.25 µg/mL	3.12 µg/mL	3.12 µg/mL	6.25 µg/mL	6.25 µg/mL	50 µg/mL	6.25 µg/mL	6.24 µg/mL	–	–	–	–
